From US9573899B2, “USP7 inhibitor compounds and methods of use” (Genentech, Inc., priority 2015, dated 2017)
Entries after “also recorded” stand apart in the source; their conditions may differ.

Legend:
[1] = system: ubiquityl-MDM2 in SJSA-1 osteosarcoma cells; experiment: Cellular ubiquityl-MDM2 assay (MSD Ub/Total MDM2); assay type: cell-based; conditions: Homo sapiens; SJSA-1 cells, low serum conditions; read-out: increase in ubiquityl-MDM2 (EC50)
Method: HCT116 colon cancer cells or SJSA-1 osteosarcoma cells were seeded at a density of 150,000 cell per well in 90 ml (RPMI 1640 media, 10% FBS, 1× GlutaMAX™, Gibco) in 96-well black clear bottom, TC-treated (Greiner, Cat#655090), and incubated for 2 hours at 37° C., 5% CO2 in a tissue culture incubator. Compounds were prepared in a serial dilution in DMSO at 200× the final desired concentration in a 96-well polypropylene V-bottom (Greiner, Cat#651261), then diluted 1:20 in RPMI tissue culture medium and 10 ml transferred to each well of the cell plate. Cell plates were incubated overnight for 20 hours, 37° C., 5% CO2. 20 ml of a […] stock (in RPMI) of the proteasome inhibitor, MG132 (Cayman Chemical, Cat#10012628), was added to each well. Cells were incubated for 1 hour at 37° C., 5% CO2. Quantitation of ubiquityl-MDM2 was carried out using Ub/Total MDM2 whole cell lysate kit (MSD, Cat#K15168D-2). […] MSD read buffer was prepared according to manufacturer's instructions and 150 ml added per well. Plates were read using a MSD Sector Reader. […] Percentage increase in ubiquityl-MDM2 was calculated relative to DMSO controls using Genedata Screener software.

endogenous USP7 = molecular target: T1, endogenous USP7 (Homo sapiens, UniProt Q93009); experiment: Activity-based profiling of deubiquitinases with HA-tagged ubiquitin probes, western blot (FIG. 5, 6); assay type: biochemical; conditions: 15 μM, 293T cell lysate
T1 construct: endogenous in cells; host or cells: 293T cell lysate
Method: 293T cells at 80% confluency are harvested by rinsing the plate one time with 10 ml PBS followed by scraping. Cells are cleared by spinning them for 3 min at 350 g at 4° C. and the pellet is flash-frozen in liquid nitrogen and stored at −80° C. until lysis. Frozen cells are lysed by quickly re-thawing them in Buffer A (50 mM Tris-HCl pH 7.5, 250 mM Sucrose, 5 mM TCEP, 2 mM ATP, 50 μM phenylmethylsulfonyl fluoride (PMSF), 120 mM NaCl, 5 mM MgCl2) and the lysate is cleared by centrifugation by spinning at 18,000 g at 4° C. […] Subsequently, the 4 samples are all incubated with 6.6 μg/ml of either one of the following activity-based DUB probes (the same probe for each of the 4 samples): HA-tagged ubiquitin vinyl sulfone (Boston Biochem, Cambridge, Mass.), HA-tagged ubiquitin propargylamine (UbiQ Bio BV, Amsterdam, The Netherlands) or HA-tagged ubiquitin vinylmethyl ester (UbiQ Bio BV, Amsterdam, The Netherlands), 1200 rpm, at 25° C., for 1 hr. The reaction is terminated by adding a 20% SDS solution to a final concentration of 0.4% for at least 30 min at room temperature, rotating. Subsequently, the reacted lysate is diluted 10× with Buffer B (50 mM Tris-HCl pH 7.5, 150 mM NaCl, 5 mM EDTA, protease inhibitor cocktail EDTA-free (Roche, Mannheim, Germany), 50 μM PMSF, 0.5% NP-40). 60-100 μl slurry depending on input protein amount of pre-equilibrated anti-HA affinity matrix (Roche, Mannheim, Germany) are added and HA-tagged proteins are immunopurified with this matrix by rotating the samples over night at 4° C. The next day the beads are washed with the following buffers in this order: three times ice-cold Buffer B, one time ice-cold Buffer B NP-40 free, and three times ice-cold 15 mM TEAB pH 8.5. Spins between washes are performed at 2000 g and 4° C. […]

[2] = system: KMS-21BM and KMS-28PE multiple myeloma cells; experiment: Cell Titer Glo viability of multiple myeloma cells (FIG. 13A); assay type: cell-based; conditions: compared to 89
Method: Seventy two hours after compounds were added, CellTitre Glo (CTG) reagent was added following the protocol provided by the manufacturer (Promega). In the experiment to test compound dependency on USP7, 3× more USP7 null cells were plated per well (7,500 vs. 2,500 for wild-type (WT) cells), given the slower proliferation of USP7 null cells. For the multiple myeloma experiment, cells seeded in low serum and treated with compounds immediately. Twenty four hours later, serum was added back to normal levels. CTG assay was done 24 h later i.e. 48 h after compounds were added instead of 72 hrs later for the adherent cells.

[3] = system: p21 in KMS-21BM and KMS-28PE multiple myeloma cells; experiment: Western blot in multiple myeloma cells (FIG. 13B); assay type: cell-based; conditions: compared to 89
Method: In 24-well plates, 0.10-0.15×10^6 (adherent) or 0.5×10^6 (suspension) cells were treated with 15 μM or 2.5 μM compounds, respectively, for 24 h in low serum prior to lysis for Western Blot analysis.

[4] = system: colon cancer cell lines RKO and RKO-E6, and cervical cancer cell lines Vibo and SiHA; experiment: Incucyte cell proliferation in RKO, RKO-E6, Vibo and SiHA cells (FIG. 15); assay type: cell-based
Method: 2,500-5,000 cells were seeded in 1-well of a 96-well plate (Corning; 3904). The following day, the media was changed from normal (10%) to low serum (0.5%) containing vehicle (DMSO) or compounds. 16-24 h later FBS was added to each well to bring serum levels back to normal (10%). Cells were then allowed to grow for 2 days. All treatments were done in triplicate. The day after cells were seeded, the media was changed to low serum media containing 2 μM CellEvent Caspase 3/7 reagent (Life Technologies; C10423) and compounds. The plates were placed in an IncuCyte (Essen Bioscience, Inc.) live cell imager and scanning was started 15-20 mins after. IncuCyte™ ZOOM facilitates live-cell monitoring via customized imaging protocols. Images were taken every 2 h for at least 3 days, using a 10× objective. Phase contrast was used to measure cell confluency/density while green fluorescence was used to measure caspase activity. The images were analyzed using IncuCyte software (Basic Analysis parameters) and a ratio of caspase activity to cell density was determined.

USP5 = molecular target: T2, USP5 (Homo sapiens, UniProt P45974); experiment: Ub-Rho110 DUB assay, Table 2, USP5
T2 sequence (P45974 1-858): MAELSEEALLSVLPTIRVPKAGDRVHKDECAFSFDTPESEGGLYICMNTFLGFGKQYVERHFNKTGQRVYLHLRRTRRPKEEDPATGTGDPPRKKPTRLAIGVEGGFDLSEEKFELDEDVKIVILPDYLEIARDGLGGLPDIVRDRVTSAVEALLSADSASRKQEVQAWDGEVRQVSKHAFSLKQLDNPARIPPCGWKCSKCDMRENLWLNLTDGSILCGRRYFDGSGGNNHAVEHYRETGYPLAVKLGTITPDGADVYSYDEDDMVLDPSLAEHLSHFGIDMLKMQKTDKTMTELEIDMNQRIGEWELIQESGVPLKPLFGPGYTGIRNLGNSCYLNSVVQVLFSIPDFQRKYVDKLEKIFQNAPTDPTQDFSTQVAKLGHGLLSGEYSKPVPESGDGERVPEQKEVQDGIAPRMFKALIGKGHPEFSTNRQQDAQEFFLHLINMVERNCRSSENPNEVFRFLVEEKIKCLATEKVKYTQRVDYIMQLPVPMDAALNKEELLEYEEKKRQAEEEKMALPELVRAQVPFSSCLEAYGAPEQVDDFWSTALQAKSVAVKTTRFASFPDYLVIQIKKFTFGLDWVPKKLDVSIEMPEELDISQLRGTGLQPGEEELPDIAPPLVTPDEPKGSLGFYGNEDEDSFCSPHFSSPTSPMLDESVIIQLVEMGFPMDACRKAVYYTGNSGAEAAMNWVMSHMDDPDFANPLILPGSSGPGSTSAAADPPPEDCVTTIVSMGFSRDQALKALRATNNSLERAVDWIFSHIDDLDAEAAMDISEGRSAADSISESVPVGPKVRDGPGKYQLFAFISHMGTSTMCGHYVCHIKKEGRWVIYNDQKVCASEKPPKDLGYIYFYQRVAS

T1 sequence (Q93009 whole entry): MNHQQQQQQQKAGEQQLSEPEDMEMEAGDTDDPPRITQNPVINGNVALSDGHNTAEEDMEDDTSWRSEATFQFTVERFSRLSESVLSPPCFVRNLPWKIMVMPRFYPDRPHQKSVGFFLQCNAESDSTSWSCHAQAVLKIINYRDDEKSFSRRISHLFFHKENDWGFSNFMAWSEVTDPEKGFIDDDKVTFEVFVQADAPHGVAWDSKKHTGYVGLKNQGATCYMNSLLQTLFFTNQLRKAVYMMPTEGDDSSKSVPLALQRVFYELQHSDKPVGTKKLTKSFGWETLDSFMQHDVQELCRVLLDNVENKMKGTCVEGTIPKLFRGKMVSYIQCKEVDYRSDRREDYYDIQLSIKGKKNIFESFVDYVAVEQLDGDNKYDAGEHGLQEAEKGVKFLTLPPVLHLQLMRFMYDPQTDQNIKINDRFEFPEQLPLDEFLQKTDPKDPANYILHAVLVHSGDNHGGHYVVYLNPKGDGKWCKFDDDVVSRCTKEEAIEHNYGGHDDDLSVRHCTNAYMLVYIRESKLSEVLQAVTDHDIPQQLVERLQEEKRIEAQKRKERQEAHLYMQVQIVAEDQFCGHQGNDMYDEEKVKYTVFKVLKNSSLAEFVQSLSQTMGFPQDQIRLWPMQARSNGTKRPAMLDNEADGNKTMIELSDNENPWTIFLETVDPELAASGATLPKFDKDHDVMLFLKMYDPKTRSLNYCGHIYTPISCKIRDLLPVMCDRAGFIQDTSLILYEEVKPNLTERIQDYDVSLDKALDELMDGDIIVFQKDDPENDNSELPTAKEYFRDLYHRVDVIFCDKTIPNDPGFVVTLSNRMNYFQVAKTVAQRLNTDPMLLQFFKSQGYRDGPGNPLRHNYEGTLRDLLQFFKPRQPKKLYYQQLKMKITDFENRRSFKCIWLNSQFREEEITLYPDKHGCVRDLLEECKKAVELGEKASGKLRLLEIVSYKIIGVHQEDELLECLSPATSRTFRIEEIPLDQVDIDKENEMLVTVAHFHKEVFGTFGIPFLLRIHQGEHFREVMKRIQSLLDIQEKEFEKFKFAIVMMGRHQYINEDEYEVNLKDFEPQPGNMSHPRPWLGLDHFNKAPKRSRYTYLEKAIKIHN

- EC50 [1]: 2 µM
- HA-probe-conjugated band corresponding to USP7 (endogenous USP7; western blot): decreased
- IC50 (USP5): 18.6 µM
Compound: CCc1c(-c2ccc3[nH]ncc3c2)cnc(N)c1-c1ccc(O)cc1 [Compound 88, 4-[2-amino-4-ethyl-5-(1H-indazol-5-yl)-3-pyridyl]phenol]
- selective antagonism of endogenous USP7 over other DUBs (endogenous USP7; evaluated by western blotting): selective DUB inhibition; also recorded: selectively antagonizes endogenous USP7 over other DUBs
- cell viability (Cell Titer Glo signal) [2]: decrease in cell viability
- p21 levels (western blot) [3]: increases p21 levels
- cell viability (Incucyte cell proliferation) [4]: decreases cell viability
